Some results are limits rather than exact numbers.

In one series the test system is Mouse / Rat. The series can be described thus: Therapeutic index (LD 50 mouse, oral / ED 50 rat, oral). The series is classed as in vivo. From the text:
(§1) The first column gives the respective two alkyl groups which are fixed in the α-position to the otherwise unsubstituted tryptamines.

The nature of series [1]: Toxicity, single oral application in mouse (LD 50). As to conditions: in vivo, dissolved in equivalent quantities of HCl.
Description: as §1

The test system of the next series is Rat. The series can be described thus: Anorexia, single oral application in rat (ED 50). Type of series: in vivo. Particulars: dissolved in equivalent quantities of HCl.
Description: as §1

A further series can be described thus: Solubility. As to conditions: in usual alcohols and in water; hydrochloride.

`CCC(N)(CC)Cc1c[nH]c2ccccc12` [Ethyl, ethyl, 3-(2'-ethyl-2'-aminobutyl)-indole]: the “Therapeutic Index (LD 50 / ED 50)” value with Mouse / Rat is reported as below 12. In addition, the 50% lethal dose (LD50) (as a rule, the dose expected to kill half of the subjects tested) in series [1] was 620 mg/kg. Further, the median effective dose (ED50) (usually the midpoint of the dose-response relation) in the series with Rat was above 50 mg/kg.

Regarding `CCC(C)(N)Cc1c[nH]c2ccccc12` (stereo not shown) [Example 3, 3-(2'-amino-2'-methylbutyl)-indole], the solubility entry in the series “Solubility” is “soluble very satisfactorily in usual alcohols and in water”.

As for `CCC(C)(N)Cc1c[nH]c2ccccc12` (stereo not shown) [Methyl, ethyl, 3-(2'-amino-2'-methylbutyl)-indole], the “Therapeutic Index (LD 50 / ED 50)” value with Mouse / Rat was found to be 47. For the same molecule, the LD50 in series [1] was 700 mg/kg. Further, in the series on Rat, the 50% effective dose (ED50) is 15 mg/kg.

As for `CC(C)(N)Cc1c[nH]c2ccccc12` [Methyl, methyl, α,α-dimethyl tryptamine, reference compound], the “Therapeutic Index (LD 50 / ED 50)” value in the series with Mouse / Rat came to 9. The 50% lethal dose (LD50) in series [1] stood at 320 mg/kg. Moreover, the ED50 in the series on Rat is 36 mg/kg.

On to `CCCC(C)(N)Cc1c[nH]c2ccccc12` (stereo not shown) [Methyl, propyl, 3-(2'-methyl-2'-aminopentyl)-indole], for which the “Therapeutic Index (LD 50 / ED 50)” value in the series on Mouse / Rat is on record as “approx. 11”. In addition, the median lethal dose (LD50) in series [1] was 530 mg/kg. Also, in the series with Rat, the median effective dose (ED50) was around 50 mg/kg.

Take `CCCC(N)(CCC)Cc1c[nH]c2ccccc12` [Propyl, propyl, 3-(2'-propyl-2'-aminopentyl)-indole]: the “Therapeutic Index (LD 50 / ED 50)” value in the series with Mouse / Rat is listed as below 18. Besides, the 50% lethal dose (LD50) in series [1] is 900 mg/kg. For the same molecule, the ED50 in the series on Rat is above 50 mg/kg.

Values taken from patent US3947584A, “Novel indolyl alkyl amines, method of producing same, and their use as anorectic agents” (Siegfried Aktiengesellschaft, priority 1972, dated 1976).
